Experimental data as given in ChEMBL document CHEMBL6115026, “Synthesis and Biological Evaluation of Peripheral 5HT2B Antagonists for Liver Fibrosis” (J Med Chem, 2025).
One block for each compound: values may come before it. Active and inactive are the calls of the source. The calls are words filed in the database; no cut-off is given here.

Legend:
[1] = target: T1, 5-hydroxytryptamine receptor 2B (Homo sapiens, UniProt P41595); assay: Binding affinity to 5-HT2B (unknown origin) assessed as inhibition constant by receptor binding assay
[2] = target: T1, 5-hydroxytryptamine receptor 2B; assay: Binding affinity to 5-HT2B (unknown origin)
[3] = target: T1, 5-hydroxytryptamine receptor 2B; assay: (§1) Antagonist activity at 5HT2B (unknown origin) expressed in FRT cells co-expressing ANO1 and YFP assessed as inhibition of 5HT-induced increase in iodide influx preincubated with compound for 10 mins followed by 5-HT addition and measured after 8 sec by YFP fluorescence quenching analysis; assay type: cell-based
[4] = target: T1, 5-hydroxytryptamine receptor 2B; assay: as §1, with “influx at 1 uM” for “influx”, “analysis relative to control” for “analysis”; assay type: cell-based; settings: time 608.0 sec
Mus musculus [5] = assay: Antifibrotic activity in CCl4-induced male C57BL/6J mouse model of liver fibrosis assessed as reduction in hydroxyproline level in liver at 10 to 30 mg/kg, ip co-administered daily with CCl4 for 4 weeks; assay type: functional, organism-based; settings: dose 10-30 mg/kg
[6] = Clearance in male ICR mouse at 2 mg/kg, iv measured after 24 hrs by LC-MS/MS analysis; assay type: ADME, organism-based; settings: in vivo
[7] = Toxicity in CCl4-induced male C57BL/6J mouse model of liver fibrosis assessed as effect on liver gross morphology at 10 to 30 mg/kg, ip co-administered daily with CCl4 for 4 weeks; assay type: organism-based; settings: in vivo, 672 h, dose 10-30 mg/kg
Mus musculus [8] = assay: Antifibrotic activity in CCl4-induced male C57BL/6J mouse model of liver fibrosis assessed as reduction in fibrosis be measuring fibrotic stage at 10 to 30 mg/kg, ip co-administered daily with CCl4 for 4 weeks; assay type: functional, organism-based; settings: dose 10-30 mg/kg
Mus musculus [9] = assay: Antifibrotic activity in CCl4-induced male C57BL/6J mouse model of liver fibrosis assessed as downregulation of Timp1 gene expression at 10 to 30 mg/kg, ip co-administered daily with CCl4 for 4 weeks by RT-PCR analysis; assay type: functional, organism-based; settings: dose 10-30 mg/kg
CYP1A2 = target: T2, CYP1A2 (Homo sapiens, UniProt P05177); assay: Inhibition of CYP1A2 (unknown origin) at 1 uM preincubated for 10 mins followed by NADPH addition and measured after 20 mins by luminescence based microplate reader analysis relative to control; assay type: ADME; settings: time 30 min
T2 sequence (P05177 whole entry): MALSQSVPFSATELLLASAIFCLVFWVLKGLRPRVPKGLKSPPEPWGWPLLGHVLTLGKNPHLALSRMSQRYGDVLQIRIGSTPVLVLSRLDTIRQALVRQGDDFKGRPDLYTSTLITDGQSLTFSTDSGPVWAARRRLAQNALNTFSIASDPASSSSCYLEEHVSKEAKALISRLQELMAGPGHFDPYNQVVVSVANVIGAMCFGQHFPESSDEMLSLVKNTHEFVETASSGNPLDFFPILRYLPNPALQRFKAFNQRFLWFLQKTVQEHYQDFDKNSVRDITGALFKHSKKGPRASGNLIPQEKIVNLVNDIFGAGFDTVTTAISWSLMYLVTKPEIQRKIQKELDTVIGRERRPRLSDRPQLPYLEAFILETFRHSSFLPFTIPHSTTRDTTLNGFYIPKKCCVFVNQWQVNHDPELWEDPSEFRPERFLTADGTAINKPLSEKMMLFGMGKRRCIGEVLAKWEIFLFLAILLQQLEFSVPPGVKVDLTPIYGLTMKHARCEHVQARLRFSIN

Mus musculus [10] = assay: Antifibrotic activity in CCl4-induced male C57BL/6J mouse model of liver fibrosis assessed as reduction in fibrotic deposition in liver at 10 to 30 mg/kg, ip co-administered daily with CCl4 for 4 weeks by sirius red staining based analysis; assay type: functional, organism-based; settings: dose 10-30 mg/kg
[11] = Cytotoxicity against mouse NIH3T3 cells assessed as reduction in cell viability incubated for 24 hrs by EZ-CYTOX cell viability assay; assay type: toxicity, cell-based
[12] = Cytotoxicity against African green monkey Vero cells assessed as reduction in cell viability incubated for 24 hrs by EZ-CYTOX cell viability assay; assay type: toxicity, cell-based, Chlorocebus sabaeus
Mus musculus [13] = assay: Antifibrotic activity in CCl4-induced male C57BL/6J mouse model of liver fibrosis assessed as downregulation of Col3a1 gene expression at 10 to 30 mg/kg, ip co-administered daily with CCl4 for 4 weeks by RT-PCR analysis; assay type: functional, organism-based; settings: dose 10-30 mg/kg
[14] = Volume of distribution at steady state in male ICR mouse at 2 mg/kg, iv measured after 24 hrs by LC-MS/MS analysis; assay type: ADME, organism-based; settings: in vivo, read-out: Vdss
CYP3A4 = CYP3A4 (Homo sapiens, UniProt P08684); assay: Inhibition of CYP3A4 (unknown origin) at 1 uM preincubated for 10 mins followed by NADPH addition and measured after 20 mins by luminescence based microplate reader analysis relative to control; assay type: ADME; settings: time 30 min
[15] = Metabolic stability in rat liver microsomes assessed as parent compound remaining measured after 30 mins in presence of NADPH by LC-MS/MS analysis; assay type: ADME, Microsome; settings: read-out: Stability
[16] = target: 5-hydroxytryptamine receptor 2A (Homo sapiens) (UniProt P28223); assay: Inhibition of 5-HT2A (unknown origin) at 1 uM relative to control
Mus musculus [17] = assay: Antifibrotic activity in CCl4-induced male C57BL/6J mouse model of liver fibrosis assessed as downregulation of alpha-SMA gene expression at 10 to 30 mg/kg, ip co-administered daily with CCl4 for 4 weeks by RT-PCR analysis; assay type: functional, organism-based; settings: dose 10-30 mg/kg
Mus musculus [18] = assay: Antifibrotic activity in CCl4-induced male C57BL/6J mouse model of liver fibrosis assessed as reduction in plasma ALT level at 10 to 30 mg/kg, ip co-administered daily with CCl4 for 4 weeks by enzymatic colorimetric analysis; assay type: functional, organism-based; settings: dose 10-30 mg/kg
[19] = Cytotoxicity against CHO-K1 cells assessed as reduction in cell viability incubated for 24 hrs by EZ-CYTOX cell viability assay; assay type: toxicity, cell-based, Cricetulus griseus; settings: Chinese hamster
[20] = Drug concentration in male mouse plasma at 5 mg/kg, ip measured after 0.5 hrs by LC-MS/MS analysis; assay type: ADME, organism-based
[21] = AUC (0 to t) in male ICR mouse at 2 mg/kg, iv measured after 24 hrs by LC-MS/MS analysis; assay type: ADME, organism-based; settings: in vivo
Mus musculus [22] = assay: Antifibrotic activity in CCl4-induced male C57BL/6J mouse model of liver fibrosis assessed as reduction in sirius red positive area in liver at 10 to 30 mg/kg, ip co-administered daily with CCl4 for 4 weeks by sirius red staining based analysis; assay type: functional, organism-based; settings: dose 10-30 mg/kg
[23] = Half-life in male ICR mouse at 2 mg/kg, iv measured after 24 hrs by LC-MS/MS analysis; assay type: ADME, organism-based; settings: in vivo
CYP2C19 = CYP2C19 (Homo sapiens, UniProt P33261); assay: Inhibition of CYP2C19 (unknown origin) at 1 uM preincubated for 10 mins followed by NADPH addition and measured after 20 mins by luminescence based microplate reader analysis relative to control; assay type: ADME; settings: time 30 min
[24] = Cytotoxicity against HFL1 cells assessed as reduction in cell viability incubated for 24 hrs by EZ-CYTOX cell viability assay; assay type: toxicity, cell-based; settings: human
Mus musculus [25] = assay: Antifibrotic activity in CCl4-induced male C57BL/6J mouse model of liver fibrosis assessed as reduction in fibrotic deposition in liver at 10 to 30 mg/kg, ip co-administered daily with CCl4 for 4 weeks by masson's trichrome staining based analysis; assay type: functional, organism-based; settings: dose 10-30 mg/kg
Mus musculus [26] = assay: Antifibrotic activity in CCl4-induced male C57BL/6J mouse model of liver fibrosis assessed as reduction in fibrotic deposition in liver at 10 to 30 mg/kg, ip co-administered daily with CCl4 for 4 weeks by H and E staining based analysis; assay type: functional, organism-based; settings: dose 10-30 mg/kg
Mus musculus [27] = assay: Antifibrotic activity in CCl4-induced male C57BL/6J mouse model of liver fibrosis assessed as downregulation of Col1a1 gene expression at 10 to 30 mg/kg, ip co-administered daily with CCl4 for 4 weeks by RT-PCR analysis; assay type: functional, organism-based; settings: dose 10-30 mg/kg
[28] = Cytotoxicity against mouse L929 cells assessed as reduction in cell viability incubated for 24 hrs by EZ-CYTOX cell viability assay; assay type: toxicity, cell-based
Mus musculus [29] = assay: Antifibrotic activity in CCl4-induced male C57BL/6J mouse model of liver fibrosis assessed as reduction in plasma total bilirubin level at 10 to 30 mg/kg, ip co-administered daily with CCl4 for 4 weeks by enzymatic colorimetric analysis; assay type: functional, organism-based; settings: dose 10-30 mg/kg
CYP2C9 = CYP2C9 (Homo sapiens, UniProt P11712); assay: Inhibition of CYP2C9 (unknown origin) at 1 uM preincubated for 10 mins followed by NADPH addition and measured after 20 mins by luminescence based microplate reader analysis relative to control; assay type: ADME; settings: time 30 min
Mus musculus [30] = assay: Antifibrotic activity in CCl4-induced male C57BL/6J mouse model of liver fibrosis assessed as reduction in plasma AST level at 10 to 30 mg/kg, ip co-administered daily with CCl4 for 4 weeks by enzymatic colorimetric analysis; assay type: functional, organism-based; settings: dose 10-30 mg/kg
CYP2D6 = CYP2D6 (Homo sapiens, UniProt P10635); assay: Inhibition of CYP2D6 (unknown origin) at 1 uM preincubated for 10 mins followed by NADPH addition and measured after 20 mins by luminescence based microplate reader analysis relative to control; assay type: ADME; settings: time 30 min
hERG (KCNH2) = hERG (KCNH2) (Homo sapiens, UniProt Q12809); assay: Inhibition of human ERG at 10 uM incubated for 2 hrs by fluorescence polarization assay relative to control; assay type: toxicity
[31] = Metabolic stability in human liver microsomes assessed as parent compound remaining measured after 30 mins in presence of NADPH by LC-MS/MS analysis; assay type: ADME, Microsome; settings: read-out: Stability
[32] = Drug concentration in male mouse brain at 5 mg/kg, ip measured after 0.5 hrs by LC-MS/MS analysis; assay type: ADME, organism-based; settings: read-out: Ct
[33] = Metabolic stability in mouse liver microsomes assessed as parent compound remaining measured after 30 mins in presence of NADPH by LC-MS/MS analysis; assay type: ADME, Microsome; settings: read-out: Stability

T1 sequence (P41595 whole entry): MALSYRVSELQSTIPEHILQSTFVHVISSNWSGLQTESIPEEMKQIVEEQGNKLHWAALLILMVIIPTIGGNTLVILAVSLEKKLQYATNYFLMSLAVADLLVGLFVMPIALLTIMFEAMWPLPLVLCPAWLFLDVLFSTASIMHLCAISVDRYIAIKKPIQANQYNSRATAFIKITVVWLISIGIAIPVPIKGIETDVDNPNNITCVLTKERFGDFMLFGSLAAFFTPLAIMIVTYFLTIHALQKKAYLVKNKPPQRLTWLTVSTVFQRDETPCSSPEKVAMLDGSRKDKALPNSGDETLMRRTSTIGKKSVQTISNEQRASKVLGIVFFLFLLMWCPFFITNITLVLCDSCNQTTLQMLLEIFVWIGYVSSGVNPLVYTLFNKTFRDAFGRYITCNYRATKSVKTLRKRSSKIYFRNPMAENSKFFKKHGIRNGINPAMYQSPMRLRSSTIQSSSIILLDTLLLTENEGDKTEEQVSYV
Chain of CYP2C19 (P33261 whole entry): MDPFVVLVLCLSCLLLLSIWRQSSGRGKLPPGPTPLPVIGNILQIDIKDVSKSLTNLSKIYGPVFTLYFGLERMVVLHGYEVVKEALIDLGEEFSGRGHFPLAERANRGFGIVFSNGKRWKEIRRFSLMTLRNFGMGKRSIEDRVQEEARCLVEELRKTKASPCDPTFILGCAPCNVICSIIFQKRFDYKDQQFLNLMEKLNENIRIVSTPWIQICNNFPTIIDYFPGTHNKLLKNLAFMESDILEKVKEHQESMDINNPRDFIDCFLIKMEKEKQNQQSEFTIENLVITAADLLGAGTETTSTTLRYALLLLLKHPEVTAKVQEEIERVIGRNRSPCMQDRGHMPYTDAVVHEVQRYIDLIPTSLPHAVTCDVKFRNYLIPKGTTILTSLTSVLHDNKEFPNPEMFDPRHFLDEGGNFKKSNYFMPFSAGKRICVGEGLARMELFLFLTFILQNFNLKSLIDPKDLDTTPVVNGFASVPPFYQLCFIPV
Chain of CYP2C9 (P11712 whole entry): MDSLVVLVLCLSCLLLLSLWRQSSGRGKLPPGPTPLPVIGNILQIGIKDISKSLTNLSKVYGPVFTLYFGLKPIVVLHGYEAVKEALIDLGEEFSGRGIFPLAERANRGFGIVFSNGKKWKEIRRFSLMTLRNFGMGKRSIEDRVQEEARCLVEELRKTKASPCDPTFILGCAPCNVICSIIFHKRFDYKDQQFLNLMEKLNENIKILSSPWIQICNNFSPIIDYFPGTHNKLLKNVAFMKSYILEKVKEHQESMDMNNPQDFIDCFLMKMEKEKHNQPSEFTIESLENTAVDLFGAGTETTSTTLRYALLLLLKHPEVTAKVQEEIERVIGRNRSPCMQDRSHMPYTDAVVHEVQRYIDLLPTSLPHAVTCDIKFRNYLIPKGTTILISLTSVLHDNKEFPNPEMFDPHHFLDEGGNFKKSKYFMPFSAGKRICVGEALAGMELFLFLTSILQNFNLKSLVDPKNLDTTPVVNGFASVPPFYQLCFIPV
Chain of hERG (KCNH2) (Q12809 whole entry): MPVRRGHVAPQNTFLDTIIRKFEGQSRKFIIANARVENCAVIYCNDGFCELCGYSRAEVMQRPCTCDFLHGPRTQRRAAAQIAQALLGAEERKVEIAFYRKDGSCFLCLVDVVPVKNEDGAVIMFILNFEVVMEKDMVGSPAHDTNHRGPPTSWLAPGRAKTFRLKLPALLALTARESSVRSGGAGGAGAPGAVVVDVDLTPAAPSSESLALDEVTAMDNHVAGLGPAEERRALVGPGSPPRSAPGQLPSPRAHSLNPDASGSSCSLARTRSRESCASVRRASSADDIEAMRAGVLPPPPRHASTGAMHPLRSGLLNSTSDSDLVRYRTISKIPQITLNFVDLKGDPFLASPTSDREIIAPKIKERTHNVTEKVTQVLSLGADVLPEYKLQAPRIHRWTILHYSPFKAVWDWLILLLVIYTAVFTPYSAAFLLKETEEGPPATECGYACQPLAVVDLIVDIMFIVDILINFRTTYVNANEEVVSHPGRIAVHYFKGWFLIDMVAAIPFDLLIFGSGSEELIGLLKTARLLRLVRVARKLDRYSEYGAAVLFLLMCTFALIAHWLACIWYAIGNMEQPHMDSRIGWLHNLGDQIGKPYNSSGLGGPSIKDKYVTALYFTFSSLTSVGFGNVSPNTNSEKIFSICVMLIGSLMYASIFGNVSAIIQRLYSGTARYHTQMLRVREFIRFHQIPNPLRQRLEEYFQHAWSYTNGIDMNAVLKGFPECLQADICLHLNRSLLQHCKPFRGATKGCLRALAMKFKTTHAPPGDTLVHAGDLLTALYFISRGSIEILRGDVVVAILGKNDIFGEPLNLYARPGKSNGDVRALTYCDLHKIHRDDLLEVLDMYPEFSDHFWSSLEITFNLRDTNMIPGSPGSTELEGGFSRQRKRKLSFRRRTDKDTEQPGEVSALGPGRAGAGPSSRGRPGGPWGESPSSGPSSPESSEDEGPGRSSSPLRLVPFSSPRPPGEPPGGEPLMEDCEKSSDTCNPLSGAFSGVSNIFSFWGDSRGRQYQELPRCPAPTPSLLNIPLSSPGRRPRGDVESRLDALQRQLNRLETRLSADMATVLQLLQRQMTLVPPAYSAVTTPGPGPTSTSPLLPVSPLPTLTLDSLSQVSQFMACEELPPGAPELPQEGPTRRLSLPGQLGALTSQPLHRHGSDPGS
Chain of 5-hydroxytryptamine receptor 2A (Homo sapiens) (P28223 whole entry): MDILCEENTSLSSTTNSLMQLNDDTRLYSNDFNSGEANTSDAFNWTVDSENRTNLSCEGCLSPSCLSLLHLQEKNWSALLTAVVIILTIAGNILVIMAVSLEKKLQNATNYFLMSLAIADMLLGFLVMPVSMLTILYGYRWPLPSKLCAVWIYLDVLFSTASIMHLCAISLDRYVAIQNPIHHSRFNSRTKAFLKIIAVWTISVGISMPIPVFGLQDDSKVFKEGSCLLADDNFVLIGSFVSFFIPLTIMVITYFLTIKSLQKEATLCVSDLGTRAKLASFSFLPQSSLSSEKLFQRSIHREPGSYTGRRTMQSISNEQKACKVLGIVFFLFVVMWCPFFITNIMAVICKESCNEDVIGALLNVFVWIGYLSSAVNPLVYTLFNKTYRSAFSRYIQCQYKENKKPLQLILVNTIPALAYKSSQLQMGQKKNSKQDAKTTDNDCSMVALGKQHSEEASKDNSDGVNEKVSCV
Chain of CYP2D6 (P10635 whole entry): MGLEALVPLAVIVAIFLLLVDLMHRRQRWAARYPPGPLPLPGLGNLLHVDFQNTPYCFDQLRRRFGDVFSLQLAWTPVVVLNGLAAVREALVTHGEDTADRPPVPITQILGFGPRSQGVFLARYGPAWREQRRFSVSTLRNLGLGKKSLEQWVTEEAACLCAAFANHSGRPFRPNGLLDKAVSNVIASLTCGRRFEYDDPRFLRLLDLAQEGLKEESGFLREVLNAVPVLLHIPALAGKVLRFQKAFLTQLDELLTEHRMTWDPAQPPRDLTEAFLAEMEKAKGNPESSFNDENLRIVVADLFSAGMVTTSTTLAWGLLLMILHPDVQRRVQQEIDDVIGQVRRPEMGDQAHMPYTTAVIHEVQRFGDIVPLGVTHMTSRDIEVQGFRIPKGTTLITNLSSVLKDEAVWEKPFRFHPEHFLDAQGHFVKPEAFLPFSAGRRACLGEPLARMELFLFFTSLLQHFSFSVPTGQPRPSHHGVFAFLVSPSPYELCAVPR
Chain of CYP3A4 (P08684 whole entry): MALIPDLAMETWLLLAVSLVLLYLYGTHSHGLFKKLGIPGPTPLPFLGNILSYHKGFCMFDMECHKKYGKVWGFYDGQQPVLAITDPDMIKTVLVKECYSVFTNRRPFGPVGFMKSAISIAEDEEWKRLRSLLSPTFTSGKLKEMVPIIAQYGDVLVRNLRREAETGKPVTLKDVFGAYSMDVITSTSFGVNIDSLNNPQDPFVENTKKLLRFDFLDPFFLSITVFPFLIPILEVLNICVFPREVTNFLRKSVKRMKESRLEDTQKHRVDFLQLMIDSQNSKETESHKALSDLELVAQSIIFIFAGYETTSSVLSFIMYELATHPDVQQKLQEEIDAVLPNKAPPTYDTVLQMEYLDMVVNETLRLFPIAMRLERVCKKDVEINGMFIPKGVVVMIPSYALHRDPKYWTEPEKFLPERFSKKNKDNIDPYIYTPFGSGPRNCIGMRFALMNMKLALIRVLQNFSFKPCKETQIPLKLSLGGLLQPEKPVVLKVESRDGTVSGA

IC50 [2]: 2.4 nM
SMILES: O=C(c1ccc(-c2ccccc2)cc1)N1CCC(c2cc3ccccc3[nH]2)CC1

IC50 [3]: 80.7 nM | inhibition ([4]; filed as antagonist): 94.3%
SMILES: COc1ccc(S(=O)(=O)N[C@H]2CCN(C(=O)[C@@H](N)CC(=O)O)C2)cc1C(=O)Nc1ccccc1Cl

clearance [6]: 34.5 mL/min/kg | inhibition at 20 min, 1 µM (CYP1A2): < 1% | Vd [14]: 1.93 L/kg | inhibition at 20 min, 1 µM (CYP3A4): 33.8% | remaining at 0.5 h [15]: 94.7% | inhibition [16]: -9.88% | concentration at 0.5 h [20]: 440 ng/mL | AUC(0-t) at 24 h [21]: 810 ng·h/mL | half-life [23]: 1.02 h | inhibition at 20 min, 1 µM (CYP2C19): 17.6% | IC50 [3]: 1.09 nM | inhibition ([4]; filed as antagonist): 102% | inhibition at 20 min, 1 µM (CYP2C9): < 1% | inhibition at 20 min, 1 µM (CYP2D6): < 1% | remaining at 0.5 h [31]: 97.6% | concentration at 0.5 h [32]: < 31.3 ng/g | remaining at 0.5 h [33]: 91.6%
SMILES: COc1ccc(S(=O)(=O)N[C@H]2CCN(C(=O)CC[C@H](N)C(=O)O)C2)cc1C(=O)Nc1ccccc1Cl.Cl
Activity (Mus musculus [5]): Active | Activity [7]: Non-toxic | Activity (Mus musculus [8]): Active | Activity (Mus musculus [9]): Active | Activity (Mus musculus [10]): Active | IC50 at 24 h [11]: > 100000 nM | IC50 at 24 h [12]: > 100000 nM | Activity (Mus musculus [13]): Active | Activity (Mus musculus [17]): Active | Activity (Mus musculus [18]): Active | IC50 at 24 h [19]: > 100000 nM | Activity (Mus musculus [22]): Active | IC50 at 24 h [24]: > 100000 nM | Activity (Mus musculus [25]): Active | Activity (Mus musculus [26]): Active | Activity (Mus musculus [27]): Active | IC50 at 24 h [28]: > 100000 nM | Activity (Mus musculus [29]): Active | Activity (Mus musculus [30]): Active | inhibition at 2 h, 10 µM (hERG (KCNH2)): 18.6%

inhibition ([4]; filed as antagonist): 97.8%
SMILES: COc1ccc(S(=O)(=O)N[C@@H]2CCNC2)cc1C(=O)Nc1ccccc1Cl

Second part, the compound before the results:

SMILES: NCC(=O)NCCN1CCN(CCCN2c3ccccc3Sc3ccc(C(F)(F)F)cc32)CC1
Ki [1]: 5.2 nM

SMILES: COc1ccc(S(=O)(=O)N[C@H]2CCOC2)cc1C(=O)Nc1ccccc1NC(=O)OC(C)(C)C
inhibition [4]: 20.1%

SMILES: COc1ccc(S(=O)(=O)N[C@H]2CCN(C(=O)C[C@H](N)C(=O)O)C2)cc1C(=O)Nc1ccccc1Cl
IC50 [3]: 10 nM | inhibition ([4]; filed as antagonist): 103%

SMILES: C[C@@H]1CN(C(=N)NCc2ccccc2)N=C1c1cccc(Cl)c1O
IC50 [2]: < 1 nM

SMILES: COc1ccc(S(=O)(=O)N[C@H]2CCNC2)cc1C(=O)Nc1ccccc1Cl
inhibition ([4]; filed as antagonist): 93.7%

SMILES: COc1ccc(S(=O)(=O)N[C@H]2CCOC2)cc1C(=O)Nc1ccccc1N1CCN(C(=O)OC(C)(C)C)CC1
inhibition [4]: 1.64%
